Earlier results, collected in US20180179476A1, “SOLVENT COMPOSITIONS FOR USE AS HEPTANE REPLACEMENTS” (TBF ENVIRONMENTAL TECHNOLOGY INC., priority 2015, published 2018).

stability (in the presence of strong aqueous bases or aqueous acids): not stable
solubility in water (room temperature): 25%
Structure (SMILES): COC(C)=O [Methyl acetate]
